Molecular target: T1, human serum albumin (HSA) (Homo sapiens, UniProt P02768)
T1 construct: gene ALB
Test: X-ray crystal structure at […] Å (seven molecules seen in the HSA Fe complex adduct)
Format: binding

T1 sequence (P02768 25-609): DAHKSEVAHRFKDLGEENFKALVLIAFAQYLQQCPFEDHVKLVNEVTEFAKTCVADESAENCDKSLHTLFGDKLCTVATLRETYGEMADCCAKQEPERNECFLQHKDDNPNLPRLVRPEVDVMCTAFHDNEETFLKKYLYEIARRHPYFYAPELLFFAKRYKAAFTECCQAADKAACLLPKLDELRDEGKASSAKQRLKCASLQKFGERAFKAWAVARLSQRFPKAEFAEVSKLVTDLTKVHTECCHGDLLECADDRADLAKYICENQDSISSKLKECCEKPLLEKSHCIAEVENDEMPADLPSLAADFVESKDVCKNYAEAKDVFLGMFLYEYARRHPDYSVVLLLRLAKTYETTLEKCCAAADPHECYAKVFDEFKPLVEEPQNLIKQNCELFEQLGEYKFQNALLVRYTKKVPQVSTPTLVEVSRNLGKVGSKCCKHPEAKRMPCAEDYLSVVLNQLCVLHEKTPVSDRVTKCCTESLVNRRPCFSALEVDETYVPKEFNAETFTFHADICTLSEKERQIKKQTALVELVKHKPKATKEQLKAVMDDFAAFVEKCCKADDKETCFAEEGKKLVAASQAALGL

CCCCCCCCCCCCCCCC(=O)O [PA, palmitic acid]
X-ray crystal structure at 2.4 Å (seven molecules seen in the HSA Fe complex add): seven palmitic acid (PA) molecules are present in the subdomains of I–III

Reference: article PMC9081768, “Spectroscopy, Structure, Biomacromolecular Interactions, and Antiproliferation Activity of a Fe(II) Complex With DPA-Bpy as Pentadentate Ligand” (Frontiers in Chemistry, 2022)
